Experimental data reported in PubChem BioAssay (NCI).
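Following 48 hours of exposure in 96-well plates, responses at five concentrations were used to interpolate endpoints linearly. TGI denotes the concentration required for complete inhibition of growth.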

How the values were obtained:
Test in all cases: DTP human tumour cell line panel, 48 h
786-0 renal = system: 786-0 renal
A549 NSCLC = system: A549 NSCLC
ACHN renal = system: ACHN renal
BT-549 breast = system: BT-549 breast
CCRF-CEM leukemia = system: CCRF-CEM leukemia
COLO 205 colon = system: COLO 205 colon
DU-145 prostate = system: DU-145 prostate
EKVX NSCLC = system: EKVX NSCLC
HCC-2998 colon = system: HCC-2998 colon
HCT-116 colon = system: HCT-116 colon
HCT-15 colon = system: HCT-15 colon
HL-60(TB) leukemia = system: HL-60(TB) leukemia
HOP-62 NSCLC = system: HOP-62 NSCLC
HS 578T breast = system: HS 578T breast
HT29 colon = system: HT29 colon
IGROV1 ovarian = system: IGROV1 ovarian
K-562 leukemia = system: K-562 leukemia
KM12 colon = system: KM12 colon
LOX IMVI melanoma = system: LOX IMVI melanoma
M14 melanoma = system: M14 melanoma
MALME-3M melanoma = system: MALME-3M melanoma
MCF7 breast = system: MCF7 breast
MDA-MB-231 breast = system: MDA-MB-231 breast
MDA-MB-435 = system: MDA-MB-435
MDA-N = system: MDA-N
MOLT-4 leukemia = system: MOLT-4 leukemia
NCI-H226 lung = system: NCI-H226 lung
NCI-H23 lung = system: NCI-H23 lung
NCI-H460 lung = system: NCI-H460 lung
NCI-H522 lung = system: NCI-H522 lung
NCI/ADR-RES ovarian = system: NCI/ADR-RES ovarian
OVCAR-3 ovarian = system: OVCAR-3 ovarian
OVCAR-4 ovarian = system: OVCAR-4 ovarian
OVCAR-8 ovarian = system: OVCAR-8 ovarian
RPMI-8226 leukemia = system: RPMI-8226 leukemia
SF-268 CNS = system: SF-268 CNS
SF-295 CNS = system: SF-295 CNS
SF-539 CNS = system: SF-539 CNS
SK-MEL-2 melanoma = system: SK-MEL-2 melanoma
SK-MEL-28 melanoma = system: SK-MEL-28 melanoma
SK-MEL-5 melanoma = system: SK-MEL-5 melanoma
SN12C renal = system: SN12C renal
SNB-19 CNS = system: SNB-19 CNS
SR leukemia = system: SR leukemia
SW-620 colon = system: SW-620 colon
T-47D breast = system: T-47D breast
TK-10 renal = system: TK-10 renal
U251 CNS = system: U251 CNS
UACC-257 melanoma = system: UACC-257 melanoma
UACC-62 melanoma = system: UACC-62 melanoma
UO-31 renal = system: UO-31 renal
A498 renal = system: A498 renal
CAKI-1 renal = system: CAKI-1 renal
HOP-92 NSCLC = system: HOP-92 NSCLC
OVCAR-5 ovarian = system: OVCAR-5 ovarian
RXF 393 renal = system: RXF 393 renal
SK-OV-3 ovarian = system: SK-OV-3 ovarian
SNB-75 CNS = system: SNB-75 CNS
PC-3 prostate = system: PC-3 prostate

For `COc1ccc(NS(=O)c2ccc(Cl)cc2)cc1` (stereo not given), the TGI (786-0 renal) was greater than 100 µM, the TGI (A549 NSCLC) was greater than 100 µM and the TGI (ACHN renal) was greater than 100 µM. The TGI (BT-549 breast) was 63.9 µM, the TGI (CCRF-CEM leukemia) was greater than 100 µM and the TGI (COLO 205 colon) was greater than 100 µM. For the same compound, the TGI (DU-145 prostate) was greater than 100 µM, the TGI (EKVX NSCLC) was greater than 100 µM and the TGI (HCC-2998 colon) was greater than 100 µM. The TGI (HCT-116 colon) was greater than 100 µM, the TGI (HCT-15 colon) was greater than 100 µM and the TGI (HL-60(TB) leukemia) was greater than 100 µM. The TGI (HOP-62 NSCLC) was greater than 100 µM, the TGI (HS 578T breast) was greater than 100 µM and the TGI (HT29 colon) was greater than 100 µM. For the same compound, the TGI (IGROV1 ovarian) was greater than 100 µM, the TGI (K-562 leukemia) was greater than 100 µM and the TGI (KM12 colon) was 23.8 µM. The TGI (LOX IMVI melanoma) was greater than 100 µM, the TGI (M14 melanoma) was greater than 100 µM and the TGI (MALME-3M melanoma) was 60 µM. For the same compound, the TGI (MCF7 breast) was greater than 100 µM, the TGI (MDA-MB-231 breast) was greater than 100 µM and the TGI (MDA-MB-435) was 76.1 µM. For the same compound, the TGI (MDA-N) was greater than 100 µM, the TGI (MOLT-4 leukemia) was greater than 100 µM and the TGI (NCI-H226 lung) was 81.1 µM. It also gave a TGI (NCI-H23 lung) greater than 100 µM, a TGI (NCI-H460 lung) greater than 100 µM and a TGI (NCI-H522 lung) greater than 100 µM. It also gave a TGI (NCI/ADR-RES ovarian) greater than 100 µM, a TGI (OVCAR-3 ovarian) greater than 100 µM and a TGI (OVCAR-4 ovarian) greater than 100 µM. It also gave a TGI (OVCAR-8 ovarian) greater than 100 µM, a TGI (RPMI-8226 leukemia) greater than 100 µM and a TGI (SF-268 CNS) of 39.2 µM. The TGI (SF-295 CNS) was greater than 100 µM, the TGI (SF-539 CNS) was 30 µM and the TGI (SK-MEL-2 melanoma) was 70 µM. The TGI (SK-MEL-28 melanoma) was greater than 100 µM, the TGI (SK-MEL-5 melanoma) was greater than 100 µM and the TGI (SN12C renal) was greater than 100 µM. For the same compound, the TGI (SNB-19 CNS) was greater than 100 µM, the TGI (SR leukemia) was greater than 100 µM and the TGI (SW-620 colon) was greater than 100 µM. For the same compound, the TGI (T-47D breast) was 41.2 µM, the TGI (TK-10 renal) was greater than 100 µM and the TGI (U251 CNS) was 54.2 µM. It also gave a TGI (UACC-257 melanoma) greater than 100 µM, a TGI (UACC-62 melanoma) of 39.9 µM and a TGI (UO-31 renal) of 42.4 µM.
`Brc1sc(Br)c2c1[C@H](Br)C[C@@H]2Br` was tested, and the TGI (786-0 renal) was greater than 100 µM, the TGI (A498 renal) was greater than 100 µM and the TGI (A549 NSCLC) was greater than 100 µM. For the same compound, the TGI (ACHN renal) was 97.9 µM, the TGI (BT-549 breast) was 79 µM and the TGI (CAKI-1 renal) was greater than 100 µM. The TGI (CCRF-CEM leukemia) was greater than 100 µM, the TGI (COLO 205 colon) was greater than 100 µM and the TGI (DU-145 prostate) was 61.2 µM. The TGI (EKVX NSCLC) was greater than 100 µM, the TGI (HCT-116 colon) was greater than 100 µM and the TGI (HCT-15 colon) was greater than 100 µM. For the same compound, the TGI (HL-60(TB) leukemia) was 75.2 µM, the TGI (HOP-62 NSCLC) was greater than 100 µM and the TGI (HOP-92 NSCLC) was 61.5 µM. The TGI (HS 578T breast) was 77.1 µM, the TGI (HT29 colon) was greater than 100 µM and the TGI (IGROV1 ovarian) was greater than 100 µM. The TGI (K-562 leukemia) was greater than 100 µM, the TGI (KM12 colon) was greater than 100 µM and the TGI (LOX IMVI melanoma) was 43.8 µM. The TGI (M14 melanoma) was greater than 100 µM, the TGI (MALME-3M melanoma) was 63.2 µM and the TGI (MCF7 breast) was 98.5 µM. The TGI (MDA-MB-231 breast) was greater than 100 µM, the TGI (MDA-MB-435) was greater than 100 µM and the TGI (MDA-N) was greater than 100 µM. The TGI (MOLT-4 leukemia) was 95.5 µM, the TGI (NCI-H226 lung) was 59.2 µM and the TGI (NCI-H23 lung) was 51.1 µM. The TGI (NCI-H460 lung) was greater than 100 µM, the TGI (NCI-H522 lung) was 34.2 µM and the TGI (NCI/ADR-RES ovarian) was 63.9 µM. It also gave a TGI (OVCAR-3 ovarian) greater than 100 µM, a TGI (OVCAR-4 ovarian) of 44.9 µM and a TGI (OVCAR-5 ovarian) greater than 100 µM. For the same compound, the TGI (OVCAR-8 ovarian) was 57.2 µM, the TGI (RXF 393 renal) was 10.4 µM and the TGI (SF-268 CNS) was 53.4 µM. For the same compound, the TGI (SF-539 CNS) was 44.5 µM, the TGI (SK-MEL-2 melanoma) was 56 µM and the TGI (SK-MEL-28 melanoma) was greater than 100 µM. The TGI (SK-MEL-5 melanoma) was greater than 100 µM, the TGI (SK-OV-3 ovarian) was greater than 100 µM and the TGI (SN12C renal) was greater than 100 µM. It also gave a TGI (SNB-75 CNS) of 85.3 µM, a TGI (SR leukemia) of 97.7 µM and a TGI (SW-620 colon) greater than 100 µM. It also gave a TGI (T-47D breast) greater than 100 µM, a TGI (TK-10 renal) greater than 100 µM and a TGI (U251 CNS) greater than 100 µM. It also gave a TGI (UACC-257 melanoma) greater than 100 µM, a TGI (UACC-62 melanoma) of 88 µM and a TGI (UO-31 renal) of 45.8 µM.
Compound `CCCCCCCCNC(=O)C1=C(C)NC(C)=C(C(=O)NCCCCCCCC)C1` has a TGI (786-0 renal) greater than 100 µM, a TGI (A549 NSCLC) greater than 100 µM and a TGI (ACHN renal) greater than 100 µM. The TGI (BT-549 breast) was greater than 100 µM, the TGI (CAKI-1 renal) was greater than 100 µM and the TGI (CCRF-CEM leukemia) was greater than 100 µM. The TGI (COLO 205 colon) was greater than 100 µM, the TGI (DU-145 prostate) was greater than 100 µM and the TGI (EKVX NSCLC) was greater than 100 µM. It also gave a TGI (HCC-2998 colon) greater than 100 µM, a TGI (HCT-116 colon) greater than 100 µM and a TGI (HCT-15 colon) greater than 100 µM. The TGI (HL-60(TB) leukemia) was greater than 100 µM, the TGI (HOP-62 NSCLC) was greater than 100 µM and the TGI (HOP-92 NSCLC) was greater than 100 µM. It also gave a TGI (HS 578T breast) greater than 100 µM, a TGI (HT29 colon) greater than 100 µM and a TGI (IGROV1 ovarian) greater than 100 µM. For the same compound, the TGI (K-562 leukemia) was greater than 100 µM, the TGI (KM12 colon) was greater than 100 µM and the TGI (LOX IMVI melanoma) was greater than 100 µM. The TGI (M14 melanoma) was greater than 100 µM, the TGI (MCF7 breast) was greater than 100 µM and the TGI (MDA-MB-231 breast) was greater than 100 µM. It also gave a TGI (MDA-MB-435) greater than 100 µM, a TGI (MDA-N) greater than 100 µM and a TGI (MOLT-4 leukemia) greater than 100 µM. For the same compound, the TGI (NCI-H226 lung) was greater than 100 µM, the TGI (NCI-H23 lung) was greater than 100 µM and the TGI (NCI-H460 lung) was greater than 100 µM. The TGI (NCI-H522 lung) was greater than 100 µM, the TGI (NCI/ADR-RES ovarian) was greater than 100 µM and the TGI (OVCAR-3 ovarian) was greater than 100 µM. For the same compound, the TGI (OVCAR-4 ovarian) was greater than 100 µM, the TGI (OVCAR-5 ovarian) was greater than 100 µM and the TGI (OVCAR-8 ovarian) was greater than 100 µM. For the same compound, the TGI (PC-3 prostate) was greater than 100 µM, the TGI (RPMI-8226 leukemia) was greater than 100 µM and the TGI (RXF 393 renal) was greater than 100 µM. The TGI (SF-268 CNS) was greater than 100 µM, the TGI (SF-295 CNS) was greater than 100 µM and the TGI (SF-539 CNS) was greater than 100 µM. It also gave a TGI (SK-MEL-2 melanoma) greater than 100 µM, a TGI (SK-MEL-5 melanoma) greater than 100 µM and a TGI (SK-OV-3 ovarian) greater than 100 µM. The TGI (SN12C renal) was greater than 100 µM, the TGI (SNB-19 CNS) was greater than 100 µM and the TGI (SNB-75 CNS) was greater than 100 µM. For the same compound, the TGI (SW-620 colon) was greater than 100 µM, the TGI (T-47D breast) was greater than 100 µM and the TGI (TK-10 renal) was greater than 100 µM. The TGI (U251 CNS) was greater than 100 µM, the TGI (UACC-257 melanoma) was greater than 100 µM and the TGI (UACC-62 melanoma) was greater than 100 µM. For the same compound, the TGI (UO-31 renal) was greater than 100 µM.
